Laboratory results taken from patent US11401278B2, “Macrocyclic indole derivatives” (The Broad Institute, Inc., priority 2017, dated 2022).
Where “and” joins values, the source holds several entries; their conditions need not be identical. Equal entries are not always repeated. Structures can show the parent of a compound that is named as a salt.

Assays:
SUDHL5 [1] = test: Induction of caspase-3/7 activity (Assay 4), SUDHL5; type: cell-based; conditions: caspase-3/7 induction, 3 hours, median
Method in brief: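 Caspase-3/7 activity measured by Caspase-Glo 3/7 luminescence in DLBCL cells after 3 h compound treatment at 37 °C. Medium-only background subtracted. EC50 fitted with C0 fixed at 1 and top set to the reference compound's plateau/max induction.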

SUDHL5 [2] = test: Induction of cytotoxicity (Assay 6), SUDHL5; conditions: read-out: Cytotox SUDHL5 [M] (median) IC50, CellTiter-Glo, 5 hours, SUDHL5
Procedure: Assay 6 Induction of Cytotoxicity Upon Treatment of Cells with Selected Compounds
Therefore, cytotoxicity assays were run in parallel in SUDHL5 and SUDHL10 cells.
The different cell lines were plated in culture medium (RPMI 1640 [GIBCO #22400-089] supplemented with 10% Fetal Bovine Serum) at a density of 3,300 cells in 30 μl/well in a sterile, solid black, flat bottom, polystyrene, TC-treated 384-well microplate (Corning #3571) using Multidrop Combi Reagent Dispenser. As a control, medium without cells was also added to the plate. Cells were incubated in a humidified incubator at 37° C. overnight. On the next day, the cells were treated with compounds (stock solution, 10 mM in DMSO) using the HP D300 Digital Dispenser in a concentration range of 3.3×10e-5 M (33 μM) to 5×10e-9 M (5 nM) in a single-dot curve with at least 16 dilutions and a DMSO concentration of 0.33%. Rim wells were excluded. The cells were incubated for 5 hours in a humidified incubator at 37° C. After this incubation, 30 μl of CellTiter-Glo® Luminescent Cell Viability reagent (Promega, G7573) was added to each well using the Multidrop Combi Reagent Dispenser, followed by 15 minutes incubation on a shaker at room temperature. Finally, luminescence was read at 0.1 ms, with a gain of 3000 using the PHERAstar FS microplate reader (BMG Labtech).

SUDHL10 = test: Induction of cytotoxicity (Assay 6), SUDHL10; conditions: read-out: Cytotox SUDHL10 [M] (median) IC50, CellTiter-Glo, 5 hours, SUDHL10
SUDHL5 [3] = test: Antiproliferation assay (Assay 7), SUDHL5; type: cell-based; conditions: CellTiter-Glo, 72 hours, median, read-out: Antiproli SUDHL5 [M] (median) IC50
Method in brief: (§1)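 Anti-proliferative effect is determined from CellTiter-Glo signal after a 72-hour incubation at 37° C, with a time-zero reference plate measured in parallel.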

HMC-1-8 = test: Antiproliferation assay (Assay 7), HMC-1-8; type: cell-based; conditions: CellTiter-Glo, 72 hours, several values per example, read-out: Antiproli HMC-1-8 [M] IC50
Method in brief: as §1

MCL-1 = MCL-1 (Homo sapiens (Human), UniProt Q07820, K194A/K197A/R201A); test: Protein-protein interaction assay MCL-1/Noxa BH3 peptide (MCL-1 assay, TR-FRET); type: binding; conditions: MBP-MCL-1 / Noxa BH3 peptide, median
MCL-1, sequence (Q07820 whole entry K194A/K197A/R201A, looked up, the tested form may be a part): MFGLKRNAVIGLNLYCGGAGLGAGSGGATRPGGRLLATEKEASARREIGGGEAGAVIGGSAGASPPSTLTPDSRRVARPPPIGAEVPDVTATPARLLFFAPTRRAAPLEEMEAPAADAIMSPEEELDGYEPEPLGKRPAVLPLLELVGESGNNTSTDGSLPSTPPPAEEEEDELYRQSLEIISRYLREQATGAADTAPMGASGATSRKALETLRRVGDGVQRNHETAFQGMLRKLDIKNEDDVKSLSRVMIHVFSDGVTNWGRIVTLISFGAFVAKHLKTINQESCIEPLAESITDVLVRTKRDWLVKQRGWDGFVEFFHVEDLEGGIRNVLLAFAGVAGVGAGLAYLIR
Method in brief: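 MBP-fused MCL-1 (aa 173-329, 1 nM) was pre-incubated with compound for 10 min at 22° C, then biotinylated Noxa BH3 peptide (1 nM) was added with anti-MBP-Eu cryptate and streptavidin-XL665. Incubation was 1 h at 22° C, then overnight at 4° C, in Tris pH 7 buffer. The 665/620 nm ratio over 11 concentrations (0.1 nM-20 μM) gave IC50 by 4-parameter fit.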

AMO-1 = test: Antiproliferation assay (Assay 7), AMO-1; type: cell-based; conditions: CellTiter-Glo, 72 hours, several values per example, read-out: Antiproli AMO-1 [M] IC50
Method in brief: as §1

In the case of `Cc1c2c(nn1C)CN(C1CC1)S(=O)(=O)CCCn1c(C(=O)O)c(CCCOc3cccc4cc(F)ccc34)c3ccc(Cl)c-2c31` (single isomer, unassigned; enantiomer 2) [Example 43, (+)-4-chloro-14-cyclopropyl-7-{3-[(6-fluoro-1-naphthyl)oxy]propyl}-2,3-dimethyl-11,12,14,15-tetrahydro-2H,10H-pyrazolo[3′,4′:4,5][1,2,8]thiadiazacycloundecino[6,7,8-hi]indole-8-carboxylic acid 13,13-dioxide N-diethylamine salt (Enantiomer 2)], the EC50 (SUDHL5 [1]) was 6.1 µM, the IC50 (SUDHL5 [2]) was 9.6e-06 M and the IC50 (SUDHL10) was 1.3e-05 M. For the same compound, the IC50 (SUDHL5 [3]) was 7e-06 M, the IC50 (HMC-1-8) was > 3.3e-05 M and the IC50 (MCL-1) was 0.0062 µM. For the same compound, the IC50 (AMO-1) was 1.1e-05 M.
`Cc1c2c(nn1C)C(CCN1CCOCC1)N(C)S(=O)(=O)CCCn1c(C(=O)O)c(CCCOc3cccc4ccccc34)c3cccc-2c31` (single isomer, unassigned; enantiomer 2) [Example 46, 2,3,14-trimethyl-15-[2-(morpholin-4-yl)ethyl]-7-{3-[(naphthalen-1-yl)oxy]propyl}-13,13-dioxo-10,11,12,13,14,15-hexahydro-2H-13lambda^6-pyrazolo[3′,4′:4,5][1,2,8]thiadiazacycloundecino[6,7,8-hi]indole-8-carboxylic acid N-ethylethanamine Salt (Enantiomer 2)] gave an EC50 (SUDHL5 [1]) of 0.39 µM, an IC50 (SUDHL5 [2]) of 5e-07 M and an IC50 (SUDHL10) of 6.1e-07 M. For the same compound, the IC50 (SUDHL5 [3]) was 3e-07 M, the IC50 (HMC-1-8) was 9.4e-06 M and 1.2e-05 M and the IC50 (MCL-1) was 0.00031 µM. The IC50 (AMO-1) was 5.3e-07 M and 5e-07 M.
In the case of `Cc1c2c(nn1C)CNS(=O)(=O)CCCn1c(C(=O)O)c(CCCOc3cccc4cc(F)ccc34)c3ccc(Cl)c-2c31` (single isomer, unassigned; enantiomer 2) [Example 52, 4-chloro-7-{3-[(6-fluoronaphthalen-1-yl)oxy]propyl}-2,3-dimethyl-13,13-dioxo-10,11,12,13,14,15-hexahydro-2H-13lambda^6-pyrazolo[3′,4′:4,5][1,2,8]thiadiazacycloundecino[6,7,8-hi]indole-8-carboxylic acid (Enantiomer 2)], the EC50 (SUDHL5 [1]) was 27 µM, the IC50 (SUDHL5 [2]) was 1.7e-05 M and the IC50 (SUDHL10) was 1.7e-05 M. For the same compound, the IC50 (SUDHL5 [3]) was 2e-05 M, the IC50 (HMC-1-8) was > 3.3e-05 M and the IC50 (MCL-1) was 0.023 µM. For the same compound, the IC50 (AMO-1) was 1.1e-05 M.
`CCc1c2c(nn1C)C(CCC1CCOCC1)N(C)S(=O)(=O)CCCn1c(C(=O)O)c(CCCOc3cccc4cc(F)ccc34)c3ccc(Cl)c-2c31` (single isomer, unassigned; enantiomer 2) [Example 62, (−)-4-chloro-3-ethyl-7-{3-[(6-fluoronaphthalen-1-yl)oxy]propyl}-2,14-dimethyl-15-[2-(oxan-4-yl)ethyl]-13,13-dioxo-10,11,12,13,14,15-hexahydro-2H-13lambda^6-pyrazolo[3′,4′:4,5][1,2,8]thiadiazacycloundecino[6,7,8-hi]indole-8-carboxylic acid (Enantiomer 2)] gave an EC50 (SUDHL5 [1]) of 4.1 µM, an IC50 (SUDHL5 [2]) of 5.3e-06 M and an IC50 (SUDHL10) of 9.7e-06 M. It also gave an IC50 (SUDHL5 [3]) of 3.7e-06 M, an IC50 (HMC-1-8) of 2.1e-05 M and an IC50 (MCL-1) of 0.11 µM. It also gave an IC50 (AMO-1) of 3.8e-06 M.
Work on `CCc1c2c(nn1C)C(CCC1CCOCC1)N(C)S(=O)(=O)CCCn1c(C(=O)O)c(CCCOc3cccc4cc(F)ccc34)c3ccc(Cl)c-2c31` (single isomer, unassigned; enantiomer 4) [Example 64, (−)-4-chloro-3-ethyl-7-{3-[(6-fluoronaphthalen-1-yl)oxy]propyl}-2,14-dimethyl-15-[2-(oxan-4-yl)ethyl]-13,13-dioxo-10,11,12,13,14,15-hexahydro-2H-13lambda^6-pyrazolo[3′,4′:4,5][1,2,8]thiadiazacycloundecino[6,7,8-hi]indole-8-carboxylic acid (Enantiomer 4)] yielded an EC50 (SUDHL5 [1]) of 1.2 µM, an IC50 (SUDHL5 [2]) of 1.2e-06 M and an IC50 (SUDHL10) of 2.9e-06 M. It also gave an IC50 (SUDHL5 [3]) of 1.4e-06 M, an IC50 (HMC-1-8) of 1.1e-05 M and an IC50 (MCL-1) of 0.021 µM. It also gave an IC50 (AMO-1) of 1e-06 M.
